26 compounds from PubChem BioAssay AID1159564 (GlaxoSmithKline (GSK), 2015) can be followed below.

Active and inactive are the calls of the source. How the calls were made is not given here.

The experiment relates to L. donovani-infected THP-1 macrophages, intracellular amastigote imaging. The experiment in a line: antileishmanial activity in infected THP-1 macrophages – imaging, THP-1 host macrophages, host toxicity (AID 1159564).
Where [1] appears, read: measured here: THP-1 host cell toxicity.
The mark [2] stands for this setting: measured here: amastigotes per macrophage.

With `O=C(NCCNc1noc(-c2ccc([N+](=O)[O-])cc2)n1)c1ccc(Cl)cc1`, the IC50 is > 50 µM (inactive). In addition, the IC50 under setting [1] is 16 µM. Also, the IC50 under setting [2] was more than 50 µM.
On the same counts, the results for `COc1cccc(CCNC(=O)C(c2cn[nH]c2)N2CCN(c3ccc(Cl)cc3)CC2)c1` (stereo not drawn) are 20 µM, 25 µM and 10 µM.
For the compound `COc1ccc(S(=O)(=O)Nc2ccc(CN3CCN(C(=O)c4cccc(C#N)c4)CC3)cc2)cc1`, the IC50 is > 50 µM (inactive). The compound also registered an IC50 under setting [1] of more than 50 µM. This compound displayed an IC50 under setting [2] of more than 50 µM.
As to `O=C(CCCNC(=O)c1ccc(Cl)cc1)Nc1nc(-c2ccccn2)cs1`, the IC50 was 5 µM. The compound also yielded an IC50 under setting [1] of more than 50 µM. The IC50 under setting [2] was 3.2 µM.
On the same counts, the results for `O=c1cc(NCCCNC2CCOc3c(I)cc(Cl)cc32)[nH]c2ccccc12` (stereo not drawn) are 20 µM, 20 µM and 13 µM.
The matching figures for `COc1ccc(Oc2ccc(C(C)N(C)c3ncc4c(N)nc(N)nc4n3)cc2)cc1` (stereo not drawn): 0.1 µM, 16 µM and 0.05 µM.
On the same counts, the results for `Cc1[nH]nc2c1C(c1ccc(OCc3ccccc3F)cc1)SCC(=O)N2` (stereo not drawn) are > 50 µM (inactive), more than 50 µM and more than 50 µM.
Take `CC1CN(Cc2ccc(C#N)cc2)CCN1c1ccc(NC(=O)c2ccccc2F)cc1` (stereo not drawn): the IC50 was 10 µM. In addition, the IC50 under setting [1] is more than 50 µM. This compound gave an IC50 under setting [2] of 5 µM.
On the same counts, the results for `c1ccc2sc(Nc3nc4ncccc4[nH]3)nc2c1` are 2.5 µM, 16 µM and 1.3 µM.
In the case of `C=CCOCC1Cn2nc([N+](=O)[O-])nc2O1` (stereo not drawn), the IC50 was > 50 µM (inactive). The same compound returned an IC50 under setting [1] of more than 50 µM. The same compound returned an IC50 under setting [2] of more than 50 µM.
For the compound `O=c1cc(NCCCNCc2c[nH]c3ccc(Br)cc23)[nH]c2ccccc12`, the IC50 is > 50 µM (inactive). The compound also had an IC50 under setting [1] of more than 50 µM. Also, under setting [2], the IC50 was more than 50 µM.
For the compound `CCc1cccc(CC)c1-n1c(SCC(=O)N2CC(=O)Nc3ccccc32)nnc1-c1cccnc1`, the IC50 was > 50 µM (inactive). Further, under setting [1], the IC50 is more than 50 µM. Moreover, the IC50 under setting [2] is more than 50 µM.
As for `O=C(c1ccc(OCCCc2cnc[nH]2)cc1)C1CC1`, the IC50 was > 50 µM (inactive). Under setting [1], this compound registered an IC50 of more than 50 µM. The compound also gave an IC50 under setting [2] of 7.9 µM.
On the same counts, the results for `N#Cc1cc(-c2ccnc(Nc3cccc(CN4CCOCC4)c3)n2)ccc1NCCN` are 1.6 µM, 7.9 µM and 0.79 µM.
On the same counts, the results for `N#Cc1c(Oc2cccc(Cl)c2)cccc1[N+](=O)[O-]` are 10 µM, more than 50 µM and 7.9 µM.
The matching figures for `O=S(=O)(NCC(c1cccnc1)N1CCN(c2ccc(F)cc2)CC1)c1cccs1` (stereo not drawn): > 50 µM (inactive), more than 50 µM and more than 50 µM.
Turning to `COc1ccc(CNc2cc(C3CC3)nc(-c3nccn3C)n2)cc1`, the IC50 was 0.79 µM. This compound also displayed an IC50 under setting [1] of 13 µM. This compound came in with an IC50 under setting [2] of 0.79 µM.
In the case of `Cn1nc(C(=O)N2CCc3ccccc32)c2c1CCS(=O)(=O)C2`, the IC50 is 4 µM. This compound also showed an IC50 under setting [1] of more than 50 µM. The IC50 under setting [2] was 1.6 µM.
The matching figures for `Cc1cc(Nc2ccc(C#N)c(Cl)c2C)n[nH]1`: > 50 µM (inactive), 20 µM and more than 50 µM.
Consider `O=C(NCCc1ccccc1Cl)c1cccn1-c1cccnc1`, for which the IC50 is > 50 µM (inactive). The compound also gave an IC50 under setting [1] of more than 50 µM. The IC50 under setting [2] is more than 50 µM.
Consider `CCC(=O)Nc1ccccc1C(=O)Nc1ccccn1`, for which the IC50 was > 50 µM (inactive). The same compound had a half-inhibitory concentration (IC50) under setting [1] of more than 50 µM. For the same compound, the IC50 under setting [2] is more than 50 µM.
For `Cc1nn(C)c(Cl)c1CN(Cc1cccnc1)Cc1ccsc1`, the IC50 was > 50 µM (inactive). The compound further showed an IC50 under setting [1] of more than 50 µM. The compound further came in with an IC50 under setting [2] of 3.2 µM.
The matching figures for `CN(Cc1nc2ccc(C(=O)NCC3CCCCC3)cc2[nH]1)C1CCCc2cccnc21` (stereo not drawn): 0.5 µM, 6.3 µM and 0.4 µM.
On the same counts, the results for `CNc1c(C(N)=O)c(-c2ccc3scnc3c2)nn1CC(F)(F)F` are > 50 µM (inactive), more than 50 µM and more than 50 µM.
With `Cc1cc(Oc2cc(Cl)c(Cl)cc2Cl)n2ncnc2n1`, the IC50 is 16 µM. The IC50 under setting [1] came to 10 µM. The same compound registered an IC50 under setting [2] of 13 µM.
On the same counts, the results for `CCOc1ccc(Nc2ccc(S(=O)(=O)N3CCN(C)CC3)cc2[N+](=O)[O-])cc1OCC` are 7.9 µM, 13 µM and 5 µM.
